“Also recorded” adds a separate entry of the source.
What was measured:
[1] = test system: T. brucei trypomastigotes (Squib-427 strain); experiment: T. brucei blood stage proliferation, resazurin; type: cell-based; settings: Trypanosoma brucei; blood stage form, 72 hours incubation; read-out: Tbru parasite EC50
Description: (§1) Compounds with TbruGSK-3 short IC50<100 nM were tested for their ability to inhibit the proliferation of T. brucei (blood stage form). Cytotoxicity testing against human fetal lung fibroblast MRC-5 cell line was also performed. Both assays were carried out with compound concentrations up to 64 µM at the Laboratory for Microbiology, Parasitology and Hygiene, University of Antwerp (www.ua.ac.be). Briefly, T. brucei trypomastigotes (Squib-427 strain, suramin-sensitive) were cultured in Hirumi-9 medium supplemented with 10% fetal calf serum at 1.5×10^4 trypomastigotes per well. Following 72 hours incubation, parasite growth was assessed fluorimetrically by addition of resazurin. For cytotoxicity evaluation, 10^4 MRC-5 cells/well were seeded onto the test plates containing the pre-diluted compounds and incubated at 37°C with 5% CO2 for 72 hours. Cell viability was determined fluorimetrically after addition of resazurin [24], [25]. Single point kinase panel screening was also conducted on selected compounds at 10 µM by Invitrogen (www.Invitrogen.com) and University of Dundee, UK (www.dundee.ac.uk).

TbruGSK-3 short = biological target: T1, TbruGSK-3 short (Trypanosoma brucei brucei, UniProt Q388M1); experiment: TbruGSK-3 short Kinase-Glo luminescent ATP depletion assay; type: biochemical; settings: mean of at least 2 replicates; 2 µM ATP; read-out: Tbru GSK-3 short IC50
T1 construct: made in house
T1 sequence (Q388M1 1-352): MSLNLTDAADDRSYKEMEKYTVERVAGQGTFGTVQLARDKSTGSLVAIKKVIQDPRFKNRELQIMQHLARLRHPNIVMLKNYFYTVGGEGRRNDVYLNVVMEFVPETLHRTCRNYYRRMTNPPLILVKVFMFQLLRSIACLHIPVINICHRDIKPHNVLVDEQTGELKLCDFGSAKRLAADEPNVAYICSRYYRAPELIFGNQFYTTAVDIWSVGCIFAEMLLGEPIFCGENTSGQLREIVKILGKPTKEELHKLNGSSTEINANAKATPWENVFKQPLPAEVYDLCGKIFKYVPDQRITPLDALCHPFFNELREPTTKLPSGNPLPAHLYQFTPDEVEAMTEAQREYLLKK
Excerpt: Recombinant TbruGSK-3 short (accession number Tb10.161.3140) was produced at the University of Washington and shipped to Pfizer, Sandwich, UK for testing. Kinase-Glo reagent (Promega) was used as previously described. This luciferase coupled assay, which provides a luminescent quantification of ATP […] during the kinase reaction, was modified to a 384-well plate screening format. A selected library of 16,540 compounds comprising known HsGSK-3 beta inhibitors and close structural analogues was screened at 10 µM final assay concentration. Assay plates were prepared by dispensing 0.2 µL of compound (dissolved in 100% DMSO) from master plates into white 384-well plates (Greiner bio one). Primary screening was conducted in a 20 µL reaction volume. Enzyme was added to each well to a final concentration of 3.8 nM in a volume of 10 µl using a Multidrop Combi dispenser (Thermo Scientific) and the plates were incubated for 15 minutes at room temperature (RT). Glycogen synthase peptide 2 (BioGSP2; Sigma) and ATP, were dissolved in 20% acetonitrile and 1 M Tris-HCl pH 7.6 respectively, then diluted in assay buffer to a final concentration of 3.2 µM BioGSP2 and 2 µM ATP. The assay buffer consisted of 25 mM Tris-HCl pH 7.5, 10 mM MgCl2, 5 mM DTT, 0.1 mg/mL BSA, 2 U/mL Heparin and 10 µM EDTA. The reaction was initiated by adding 10 µL of the substrate mixture to each well and allowed to proceed at RT for 2 h. Twenty microlitres of Kinase-Glo reagent was added to quench the reaction. Luminescence was measured after 1 h at a 100 millisecond/well integration time using the Acquest Multimode plate reader (Molecular Devices). Each plate included a positive control (4 µM GW8510, Sigma) and negative control (1% DMSO). […] The data was analysed using Pfizer SIGHTS software and visualised using Spotfire software (TIBCO). Five separate 384-well plates were screened in duplicate to assess the assay reproducibility.

[2] = Cytotoxicity against MRC-5 cell line, resazurin; type: cell-based, human; settings: human, MRC-5 fetal lung fibroblast cells; 72 hours incubation
Description: as §1

HsGSK-3 beta = biological target: T2, HsGSK-3 beta (Homo sapiens, UniProt P49841); experiment: Human GSK-3 beta inhibition (Pfizer data files or Omnia Kinase Assay); type: biochemical; settings: recovered from Pfizer data files or Omnia Kinase Assay, mean of at least 2 replicates
T2 construct: purchased Invitrogen
T2 sequence (P49841 whole entry): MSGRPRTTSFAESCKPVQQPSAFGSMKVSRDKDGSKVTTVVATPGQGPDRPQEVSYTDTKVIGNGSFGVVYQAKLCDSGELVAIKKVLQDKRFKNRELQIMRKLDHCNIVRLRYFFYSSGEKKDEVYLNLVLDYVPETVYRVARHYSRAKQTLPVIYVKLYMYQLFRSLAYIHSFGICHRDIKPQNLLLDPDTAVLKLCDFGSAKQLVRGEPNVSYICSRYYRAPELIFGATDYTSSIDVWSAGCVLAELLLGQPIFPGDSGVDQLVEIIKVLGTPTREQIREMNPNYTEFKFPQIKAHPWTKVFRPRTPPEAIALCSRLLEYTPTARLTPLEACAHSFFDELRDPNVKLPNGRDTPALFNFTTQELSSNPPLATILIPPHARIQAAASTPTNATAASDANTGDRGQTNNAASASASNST
Description: Human GSK-3 beta inhibition data (IC50) for many of the compounds were recovered from Pfizer data files. If historical data were not available, the compounds were tested in an assay using 10 nM HsGSK-3 beta (Invitrogen) using Omnia Kinase Assay (Invitrogen) according to the manufacturer's instructions. The reaction volume was 20 µL and a range of compound concentrations were tested, up to a maximum of 40 µM. Briefly, 5 µl of HsGSK-3 beta was dispensed into black 384 assay plates (Greiner bio one) containing 0.2 µl of compounds. The enzyme was incubated with the compounds for 15 minutes at 30°C then 15 µl of substrate mixture was added to each well to commence the reaction. The substrate mixture consisted of 2 µL each of 2× kinase reaction buffer, 10 µM Omina peptide substrate, 0.2 mM DTT and 10 µM ATP, and 7 µL of ultra pure water. The reaction was allowed to proceed for 30 minutes at 30°C. Increase in fluorescence levels indicating peptide phosphorylation by the enzyme was monitored using an Envision (PerkinElmer) with λex 360/λem 485 nm and the data were analysed using Pfizer software SIGHTS and Spotfire (TIBCO).

CaCo2 cell = CaCo2 cell flux assay; type: in vitro ADME; settings: data not shown
[3] = test system: panel of approximately 40 human kinases; experiment: Single point human kinase panel screening; type: biochemical; settings: 10 µM
Description: as §1

[4] = test system: human fetal lung fibroblast MRC-5 cell line; experiment: Cytotoxicity against MRC-5 cell line, resazurin; type: cell-based; settings: ratio of EC50s
Description: as §1

SMILES	EC50 [1]	IC50 (TbruGSK-3 short)	EC50 at 72 h [2]	IC50 (HsGSK-3 beta)	cell permeability in CaCo2 cell flux assay (CaCo2 cell)	human kinase panel specificity (in words) [3]	selectivity window between T. brucei activity and activity on MRC5 cells [4]	number of other kinases with >50% inhibition [3]
CS(=O)(=O)c1ccc(S(=O)(=O)Nc2ccc3c(Cl)c(C(=O)N4CCc5ccccc5C4)sc3c2)cc1 [AG-02449]	130 nM	69 nM	620 nM					
CNCc1cncc(-c2ccc3[nH]nc(-c4nc5ccccc5[nH]4)c3c2)c1C [AG-024290]	130 nM	62 nM	130 nM	173 nM				
CCc1nn(CCC(=O)Nc2cc([C@H]3C[C@@H](NC(C)=O)C3)[nH]n2)c2ccccc12 [CE-160042]	> 25000 nM	142 nM		32 nM	no detectable cell permeability	highly specific and only inhibited HsGSK-3 beta; also recorded: no significant inhibition of any other kinases		
CCCC1=C(C#N)C(c2cccc3nonc23)c2cn[nH]c2N1 (centres unmarked) [CE-309608]	2690 nM	21 nM	16000 nM	46 nM				
O=C(NC1CCN(C(=O)Cc2ccccc2)C1)c1ccc2[nH]nc(-c3nc4ccccc4[nH]3)c2c1 (centres unmarked) [CE-317112]	1140 nM	99 nM	39400 nM	3 nM			35 fold	
CC(C)C(=O)Nc1cc([C@H]2C[C@@H](OC(=O)NCc3ccccc3Cl)C2)[nH]n1 [CE-324998]	230 nM	93 nM	1220 nM	1 nM				
CC(C)C(=O)Nc1cc([C@H]2C[C@@H](OC(=O)NCc3cccc(C(F)(F)F)c3F)C2)[nH]n1 [CE-325011]	1050 nM	94 nM	2320 nM	5 nM				
CC(C)C(=O)Nc1cc([C@H]2C[C@@H](OC(=O)N(C)Cc3ccccc3)C2)[nH]n1 [CE-325692]	640 nM	65 nM	4670 nM	2 nM				
CCC(C(=O)Nc1cc([C@H]2C[C@@H](OC(=O)NCc3ccccn3)C2)[nH]n1)c1ccccc1 (some centres unmarked) [PF-00305135]	2450 nM	67 nM	930 nM	3 nM				
CN(C)C[C@@H](NC(=O)c1ccc2[nH]nc(-c3nc4ccccc4[nH]3)c2c1)c1ccccc1 [PF-00744923]	130 nM	70 nM	130 nM	< 1000 nM				
Cc1cc2nc(N3CCc4nc[nH]c(=O)c4C3)nc(Nc3cc(C4CC4)[nH]n3)c2s1 [PF-00956933]	130 nM	57 nM	2170 nM	< 1000 nM				
Cc1cc(Nc2cc[nH]n2)nc(N(C)CCc2ccncc2)n1 [PF-01242377]	130 nM	61 nM	1180 nM	132 nM				
CNC(=O)[C@@H]1CCCN1c1nc(Cc2cccc(C#N)c2)cc(Nc2cc(C3CC3)[nH]n2)n1 [PF-02368935]	130 nM	19 nM	130 nM	< 1000 nM				
O=C(NCc1ccccc1)O[C@H]1C[C@@H](c2cc(NC(=O)C3CCCCC3)n[nH]2)C1 [PF-04279731]	1230 nM	62 nM	1470 nM	1 nM				2
O=C1NCCc2[nH]c(-c3ccnc(Nc4ccc(-n5cccn5)cc4)c3)cc21 [PF-04903528]	1130 nM	32 nM	1130 nM	236 nM				
O=c1ccc2cnc(Nc3ccccc3)nc2n1C1CC2CCC1C2 (centres unmarked) [compound 0180532]		7270 nM		60 nM				4
O=c1ccc2cnc(Nc3ccc(N4CCC(CCCO)CC4)cc3)nc2n1C1CCCC1 [compound 0181276]		600 nM		4290 nM		relatively specific against the wider human kinase panel		

Source: publication PMC3071371, “Trypanosoma brucei Glycogen Synthase Kinase-3, A Target for Anti-Trypanosomal Drug Development: A Public-Private Partnership to Identify Novel Leads” (PLoS Neglected Tropical Diseases, 2011)
